Test results reported in BindingDB's records for doi:10.1021/jm00006a013 (Universit&#224, 1995).

Biological target: sigma receptor (Cavia porcellus)
Experiment: In vitro binding affinity measured on sigma opioid receptor using [3H]DTG as radioligand

Row | SMILES | IC50 [nM]
1 | COc1ccc2c(c1)C(SCCN1CCN(c3ccccc3OC)CC1)CCC2 (stereo unspecified) [1-(2-Methoxy-phenyl)-4-[2-(7-methoxy-1,2,3,4-tetrahydro-naphthalen-1-ylsulfanyl)-ethyl]-piperazine] | 138
2 | COc1ccc2c(c1)C(CCCN1CCN(c3ccccn3)CC1)CCC2 (stereo unspecified) [1-[3-(7-Methoxy-1,2,3,4-tetrahydro-naphthalen-1-yl)-propyl]-4-pyridin-2-yl-piperazine] | 125
3 | COc1ccc2c(c1)C(CCCN1CCN(c3ccccc3OC)CC1)=CCC2 [1-[3-(7-Methoxy-3,4-dihydro-naphthalen-1-yl)-propyl]-4-(2-methoxy-phenyl)-piperazine] | 228
4 | COc1ccc2c(c1)C(CCCN1CCN(c3ccccn3)CC1)=CCC2 [1-[3-(7-Methoxy-3,4-dihydro-naphthalen-1-yl)-propyl]-4-pyridin-2-yl-piperazine] | 246
5 | COc1ccccc1N1CCN(CC/C=C2\CCCc3ccccc32)CC1 [1-{3-[3,4-Dihydro-2H-naphthalen-(1E)-ylidene]-propyl}-4-(2-methoxy-phenyl)-piperazine] | 55
6 | COc1ccccc1N1CCN(CC/C=C2\CCCc3c(OC)cccc32)CC1 [1-{3-[5-Methoxy-3,4-dihydro-2H-naphthalen-(1E)-ylidene]-propyl}-4-(2-methoxy-phenyl)-piperazine] | 52.2
